In patent publication US20050129621A1, “Aerosol formulations for pulmonary administration of medicaments to produce a systemic effect” (Chiesi Farmaceutici S.P.A., priority 2002, published 2005):
Read-outs that look alike come from different tables or passages of the source.

Assays:
[1] = Stability study of pMDI formulations in coated aluminum cans, HPLC; details: 25° C., six months
Procedure: The recovery of diisobutyryl apomorphine was determined by HPLC.
The leuprolide acetate content was determined by HPLC.

[2] = Cascade impaction studies (Andersen Cascade Impactor), aerosol delivery characteristics; assay type: physicochemical
Procedure: All impaction studies were conducted with formulations contained in cut edge anodised aluminium cans fitted with 50 μl or 100 μl valves. The studies were carried out using an Andersen Cascade Impactor (ACI) fitted with a USP XXII metal throat entry port.
The HFA solution formulations were discharged into the ACI through actuators having an orifice diameter from 0.14 to 0.45 mm. Deposition of the drug on each ACI plate was determined by high pressure liquid chromatography (HPLC).
MMAD values and corresponding geometric standard deviation (GSD) were calculated from plots of the cumulative percentage undersize of drug collected on each ACI plate (probit scale), against the upper cut off diameter for each respective ACI plate (log10 scale).
The following parameters were determined: the metered dose, which is the sum of the dose delivered through the Andersen apparatus plus the active ingredient residue deposited on the device actuator; the cumulative amount of active particles deposited on the various ACI stages; the amount on the actuator; the amount in the adaptor and in the throat (adp/throat); the fme particle dose or respirable dose (FPD) which is the amount of particles deposited on stages 3 to filter of the ACI and corresponds to the amount of particles of size less than 4.7 μm; the fine particle fraction or respirable fraction which is the ratio between the respirable dose and the dose delivered ex-actuator.
The cans were provided with actuators with an orifice diameter of 0.22 mm.
Two ACI deposition determinations were performed with each formulation. Twenty shots were discharged into the ACI.
The cans were provided with actuators with an orifice diameter of 0.14 mm.
Two ACI deposition determinations were performed with the formulation. Ten shots were discharged into the ACI.

[3] = Solubility studies in HFA pMDI formulations (visual assessment for crystal growth)
Procedure: The assembly of the pMDI cans was carried out using hand operated crimping and filling equipment. Formulations were prepared by accurately weighing the required quantity of drug into the can or vial. The appropriate volume of ethanol and the other co-solvent if required in the formulation, was then added. The valve was crimped onto the vial/can and the assembled vial/can was ultra-sonicated for approximately 10 minutes. The HFA propellant was filled through the valve and the pMDI was ultra-sonicated for a further 10 minutes. […] Final compositions were calculated as percentage w/v for the active ingredient and as percentage w/w for the co-solvents.
All solubility investigations were conducted in plastic coated glass pMDI vials fitted with continuous spray valves. Once produced the medicament-HFA solution pMDIs were stored in refrigerator at 4° C. (±0.1° C.). The pMDI vials were removed periodically and the vials assessed visually with the aid of a polarized light unit for crystal growth.

[4] = 0.5% and 1% w/v in HFA 134a, 5% w/w ethanol, 0.1% w/w glycerol, actuator orifice 0.22 mm
[5] = 0.04% w/v (40 μg/100 μl) in HFA 134a, 15% w/w ethanol, 2% w/w water, actuator orifice 0.14 mm
[6] = 0.08% w/v (80 μg/100 μl) in HFA 134a, 18% w/w ethanol, 3% w/w water, actuator orifice 0.14 mm

SMILES	degradation ([1]; formulation of Example 1, coated aluminum cans upright and inverted)	difference between cans stored upright and inverted ([1]; formulation of Example 1, coated aluminum cans)	MMAD [2, 4]	amount of active particles of sizes from 0.43 to 3.3 μm [2, 4] [%]	fine particle fraction (FPF) [2, 4]	concentration at which formulations are soluble ([3]; in HFA 134a or HFA 227, various percentages of ethanol, stored at 4° C.)	MMAD [2, 5]	amount of active particles of sizes from 0.43 to 3.3 μm [2, 5] [%]	fine particle fraction (FPF) [2, 5]	MMAD [2, 6]	amount of active particles of sizes from 0.43 to 3.3 μm [2, 6] [%]	fine particle fraction (FPF) [2, 6]	change of solubility when water was added [3]	concentration at which formulations are soluble [3]
CC(C)C(=O)Oc1ccc2c(c1OC(=O)C(C)C)-c1cccc3c1[C@@H](C2)N(C)CC3 [diisobutyryl apomorphine]	minimal degradation	no significant difference	about 2.0 μm	≥ 60	70-75%	up to 1 % w/v								
CCNC(=O)[C@@H]1CCCN1C(=O)[C@H](CCCNC(=N)N)NC(=O)[C@H](CC(C)C)NC(=O)[C@@H](CC(C)C)NC(=O)[C@H](Cc1ccc(O)cc1)NC(=O)[C@H](CO)NC(=O)[C@H](Cc1c[nH]c2ccccc12)NC(=O)[C@H](Cc1c[nH]cn1)NC(=O)[C@@H]1CCC(=O)N1 [leuprolide acetate]							about 1.0 μm	≥ 61	at least 72%	about 1.3 μm	≥ 52	at least 59%	significant increase	up to 0.26 % w/v
